Earlier results on one substance are cited in PMC10644327, “A randomized, double‐blind phase 1b study evaluating the safety, tolerability, pharmacokinetics and pharmacodynamics of the NLRP3 inhibitor selnoflast in patients with moderate to severe active ulcerative colitis” (Clinical and Translational Medicine, 2023).

Details of the data set: method as in earlier work. As to conditions: added to standard‐of‐care therapy, patients with acute severe UC; cited from earlier work.

Take anakinra: the Clinical outcome is “did not improve the clinical outcome”.
